According to US11434222B2, “MAGL inhibitors” (H. LUNDBECK A/S, priority 2020, dated 2022):
Read-outs that look alike come from different tables or passages of the source.

Key:
[1] = test system: rat formalin paw model of inflammatory pain; assay: Rat formalin paw model of inflammatory pain; assay type: in vivo
Protocol: In the rat formalin paw model formalin is administered into the right […] of a rat in order to induce pain (observed by hind limb licking duration and frequency).
Male Sprague Dawley rats were divided into three cohorts to enable testing in the Laboras™ equipment to be carried out over three days in a balanced design to give treatment groups of 10. On the day of the study, male Sprague Dawley rats were weighed, tail marked and dosed orally with vehicle, test compound (0.1, 0.3, 0.6, 1, 3 or 10 mg/kg) or pregabalin (30 mg/kg) 4 h pre-test using a 5 mL/kg dosing volume. For Example 6 the vehicle used was 0.5% methylcellulose in water and for Example 8 the vehicle used was 20% HP-b-CD. Up to six animals were dosed at a time. After 4 h, rats received an intraplantar injection of 50 μL of a 2.5% v/v formalin solution into the right hind paw. Rats were immediately placed into the Laboras™ cages and data acquisition started. The primary measures recorded by Laboras™ for the formalin paw model are hind limb licking duration and frequency. Locomotion is also reported as maximum speed, average speed when moving or over the whole-time bin and distance travelled. After 40 min, when data acquisition was complete, rats were removed from the cages.
On removal from the test cages, rats were anaesthetised with the gaseous anaesthetic isoflu-rane (5% v/v isoflurane in oxygen) and blood samples were collected by cardiac puncture. Brains were then removed, rinsed in phosphate buffered saline (PBS), hemi-sected and frozen separately in liquid nitrogen.
Data were analysed with Statistica software (TIBCO, USA version 11.1). All data are expressed as means±standard error of the mean (sem) to one decimal place. […] Time course data were analysed by repeated measures analysis of variance (ANOVA) followed by one-way ANOVAs at each time point and subsequent Dunnett's post hoc tests. […]

[2] = test system: tonic hind limb extensor seizure (MEST); assay: Maximal electroshock seizure threshold (MEST) model in the rat; assay type: in vivo; conditions: 10 mg/kg p.o., 240 min pre-treatment, FIG. 3 and FIG. 4
Protocol: In the MEST model, a low-intensity electrical current of high frequency and short duration is applied to induce tonic convulsions.
Animals were randomly assigned to vehicle, compound treatment or Lamotrigine dose groups. Animals were dosed at 5 mL/kg according to treatment groups (n=12 or 16/group), with either vehicle (0.5% MC) p.o. for Example 6, vehicle (10% HP-b-CD) for Example 8, test compound at 10 mg/kg p.o. 240 min pre-treatment time, or Lamotrigine p.o. 360 min pre-treatment time.
Rats were individually assessed for production of a tonic hind limb extensor seizure following a single corneally delivered electroshock of 0.3 second duration, using an ‘up and down method’ of shock titration (Kimball A W et al., 1957). Thus, the first rat within a treatment group was given a shock at the expected or estimated CC50 current (current producing tonic hind limb extensor seizures in 50% of animals). […] This procedure was continued for all rats within a treatment group. Induction of seizure was measured as an all-or-nothing effect scored as either present (+) or absent (0) for each animal. […]
Significant differences between drug-treated animals and controls were assessed according to Litchfield and Wilcoxon (1949) or One-Way ANOVA followed by Dunnett's multiple comparisons test.

[3] = Rat Kp, brain disposition after oral gavage; assay type: in vivo; conditions: for Total plasma concentration / Total blood concentration / Total brain concentration: 5 mg/kg oral gavage; for Total plasma concentration / Kp at 4 h / Kp uu at 4 h: 4 h; for Total plasma concentration: calculated from total blood concentration using blood to plasma ratio; for Total blood concentration / Total brain concentration: 4 h post dosing, mean n = 3; for Kp at 4 h / Kp uu at 4 h: male, Sprague-Dawley, po, 5 mg/kg p.o.; for Kp at 4 h: total brain concentration:total plasma concentration ratio; for Kp uu at 4 h: unbound brain concentration:unbound plasma concentration ratio
Protocol: (§1) Brain disposition was evaluated in male Sprague-Dawley rats (n=3, standard body weight). Briefly, test compound was formulated as a simple suspension, in 0.5% HPMC in water, then administered by oral gavage (5 mg/kg, 5 mL/kg). Four hours post dosing, rats were sacrificed, and terminal blood and brain samples were taken. Blood was obtained via cardiac puncture (0.1 mL) and was added into 0.4 mL CH3CN for precipitation immediately. The samples were stored at −75+/−15° C. prior to analysis. Brain tissue samples were collected after animals were fully exsanguinated, and the tissues were washed with cold saline quickly. After sectioning, brain sections were immediately frozen in liquid nitrogen and stored at −75+/−15° C. prior to analysis. Blood and brain samples were analyzed by LC/MS/MS using an optimized analytical method. Concentrations of test compound in blood and brain were quantified against matrix matched calibration standards. The total blood, plasma, and brain concentration data are presented in Table 2 alongside the calculated brain Kp (total brain concentration:total plasma concentration ratio), the calculated brain kp,uu (unbound brain concentration:unbound plasma concentration ratio), the free fractions in rat plasma and brain, and the in vitro rat blood to plasma distribution profile. The total plasma concentration data were calculated from the total blood concentration data using rat blood to plasma ratio which was measured in vitro (1 μM test compound). For kp,uu determination, the free fraction in rat plasma and brain homogenate were measured in vitro by standard equilibrium dialysis (1 μM test compound and 6 h equilibration against buffer pH 7.4; for rat plasma analysis, 100 mM stock solution of diisopropyl fluorophosphate was added to the pre-warmed rat plasma prior to adding test article).

[4] = Free fraction in rat plasma and brain homogenate by equilibrium dialysis; assay type: in vitro ADME
Protocol: as §1

[5] = In vitro rat blood to plasma ratio; assay type: in vitro ADME; conditions: 1 μM test compound
Protocol: as §1

[6] = rat brain homogenate, buffer pH 7.4, read-out: Rat brain free fraction
[7] = rat plasma, buffer pH 7.4, read-out: Rat plasma free fraction

Structure (SMILES)	measure of spontaneous pain (hind limb licking frequency) ([1]; 0.6 mg/kg, 3 mg/kg and 10 mg/kg p.o. 4 h pre-test, early and/or late phases, FIG. 1)	anticonvulsant activity in the MEST (seizure threshold CC50) [2]	Total plasma concentration [3]	Total blood concentration [3]	Total brain concentration [3]	Kp at 4 h [3]	Kp uu at 4 h [3]	fraction unbound at 6 h, 1 μM [4, 6]	fraction unbound at 6 h, 1 μM [4, 7]	blood plasma ratio at 1 μM [5]	measure of spontaneous pain (hind limb licking frequency) ([1]; 0.3 mg/kg and 0.6 mg/kg p.o. 4 h pre-test, late phase, FIG. 2)	measure of spontaneous pain (hind limb licking frequency) ([1]; 1 mg/kg, 3 mg/kg and 10 mg/kg p.o. 4 h pre-test, both early and late phases, FIG. 2)
O=C(Nc1cccnn1)[C@H]1CC12CCN(C(=O)OC(C(F)(F)F)C(F)(F)F)CC2 [Example 6, 1,1,1,3,3,3-hexafluoropropan-2-yl (S)-1-(pyridazin-3-ylcarbamoyl)-6-azaspiro[2.5]octane-6-carboxylate]	statistically significant reduction	anticonvulsant activity	0.576 µM	0.415 µM	1.78 µM	3.09	2.25	0.04	0.055	0.72	–	–
O=C(NC1CCOCC1)[C@H]1CC12CCN(C(=O)OC(C(F)(F)F)C(F)(F)F)CC2 [Example 8, 1,1,1,3,3,3-hexafluoropropan-2-yl (S)-1-[(oxan-4-yl)carbamoyl]-6-azaspiro[2.5]octane-6-carboxylate]	–	anticonvulsant activity	0.124 µM	0.119 µM	0.255 µM	2.06	0.801	0.167	0.427	0.96	statistically significant reduction	statistically significant reduction
